What was measured:
A2A adenosine receptor = target: T1, A2A adenosine receptor (Homo sapiens, UniProt P29274); assay: Radioligand binding affinity, A2A adenosine receptor ([3H]CGS-21680, HEK 293 cell); settings: for % hA2A: percentage inhibition of specific binding of 10 µM; for Ki: nM ± SEM, read-out: Ki(nM) hA2A
T1 construct: expressed in transfected cells; host or cells: HEK 293 cell
Description: The adenosine derivatives of the present invention were assayed for binding affinity and selectivity for A1, A2A and A3 receptors among human adenosine receptor (hAR) as follows.
Adenosine deaminase was added alone or in combination with a radioactive ligand when cerebral meninges were incubated at 30° C. for 30 min. Each of the compounds synthesized in the examples was measured for IC50 at least 6 different concentrations, and the measurements were analyzed using SigmaPlot software to determine Ki values.

[1] = system: TPA-induced inflammation of the mouse ear; assay: Anti-inflammatory activity, TPA-induced mouse ear inflammation; type: in vivo, ICR mice; settings: for anti-inflammatory activity: 0.5% in acetone, 20 µl, FIG. 11 (Exp. Ex. 12)
Description: The adenosine derivatives of the present invention were examined for anti-inflammatory activity in the following animal test. Seven-week-old male ICR mice were treated with TPA (12-O-tetradecanoylphorbol-13-acetate, 20 µl) in the right ear. […] Hydrocortisone was used at the same concentration as a control.
6 hrs after treatment with TPA, the mice were secondarily treated with the adenosine derivatives of the present invention. 24 hrs after TPA treatment, test animals were euthanized using a cervical dislocation method. Samples were obtained from the right ear using a 6 mm diameter punch. The activity was observed by measuring the ear sample using a microbalance. Percentages of inhibition were calculated using the following Equation 1. The compositions and amounts used in these experiments are summarized in Tables 14 to 17 and the anti-inflammatory activities thereof are shown in FIGS. 10 to 13. % Inhibition = (1−Rt.Ear(Test−Nontreated))/(Rt.Ear(TPAonly−Nontreated)) [formula]

A1 adenosine receptor = target: T2, A1 adenosine receptor (Homo sapiens, UniProt P30542); assay: Radioligand binding affinity, A1 adenosine receptor ([3H]CCPA, CHO cells); design: % hA1: dose or concentration left out as unconfirmed; settings: for % hA1: percentage inhibition of specific binding of [3H]CCPA; for Ki: nM ± SEM, read-out: Ki(nM) hA1
T2 construct: expressed in transfected cells; host or cells: CHO cells (ATCC No. CCL-61)
T2 sequence (P30542 1-326): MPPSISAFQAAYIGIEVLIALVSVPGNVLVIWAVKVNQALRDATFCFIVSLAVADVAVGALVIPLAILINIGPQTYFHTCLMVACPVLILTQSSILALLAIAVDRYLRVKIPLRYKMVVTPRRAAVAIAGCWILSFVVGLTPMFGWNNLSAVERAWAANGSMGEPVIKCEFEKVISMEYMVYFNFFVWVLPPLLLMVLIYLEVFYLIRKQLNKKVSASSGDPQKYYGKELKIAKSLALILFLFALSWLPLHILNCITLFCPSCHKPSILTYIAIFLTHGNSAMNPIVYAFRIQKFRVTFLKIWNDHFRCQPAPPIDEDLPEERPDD
Description: (§1) CHO cells (ATCC No. CCL-61), in which A1 and A3 adenosine receptors were expressed, were cultured in F-12 media (Gibco, U.S.A.) supplemented with 10% fetal bovine serum (FBS) and penicillin/streptomycin (100 units/ml and 100 g/ml), at 37° C. in a 5% CO2 atmosphere. […] Incubation for 1 hr in a 37° C. incubator was followed by rapid filtration in a vacuum using a cell collector (TOMTEC, U.S.A.). Subsequently, the test tubes were washed three times with 3 ml of the buffer before radioactivity was measured using a γ-counter. […] Ki for binding affinity was determined by subtracting the non-specific binding value from the total binding value. On the basis of the specific binding values, the samples were analyzed for binding affinity to various adenosine receptors.

A3 adenosine receptor = target: T3, A3 adenosine receptor (Homo sapiens, UniProt P0DMS8); assay: Radioligand binding affinity, A3 adenosine receptor ([125I]AB-MECA, CHO cells); design: % hA3: dose or concentration left out as unconfirmed; settings: for Ki: nM ± SEM, read-out: Ki(nM) hA3
T3 construct: expressed in transfected cells; host or cells: CHO cells (ATCC No. CCL-61)
T3 sequence (P0DMS8 1-318): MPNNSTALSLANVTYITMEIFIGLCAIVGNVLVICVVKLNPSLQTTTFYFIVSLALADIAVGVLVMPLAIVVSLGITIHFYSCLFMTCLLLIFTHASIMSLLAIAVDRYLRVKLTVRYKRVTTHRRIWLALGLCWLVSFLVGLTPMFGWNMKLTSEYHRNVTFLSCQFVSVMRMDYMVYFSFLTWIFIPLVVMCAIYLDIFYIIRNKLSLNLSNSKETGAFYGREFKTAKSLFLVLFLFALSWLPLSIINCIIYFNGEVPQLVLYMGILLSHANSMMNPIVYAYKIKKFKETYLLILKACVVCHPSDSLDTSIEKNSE
Description: as §1

[2] = 0.5% in a mixture of distilled water and acetone (1:4), FIG. 12 (Exp. Ex. 13)
[3] = 0.5% in a mixture of DMSO and acetone (1:9), FIG. 13 (Exp. Ex. 14)

T1 sequence (P29274 whole entry): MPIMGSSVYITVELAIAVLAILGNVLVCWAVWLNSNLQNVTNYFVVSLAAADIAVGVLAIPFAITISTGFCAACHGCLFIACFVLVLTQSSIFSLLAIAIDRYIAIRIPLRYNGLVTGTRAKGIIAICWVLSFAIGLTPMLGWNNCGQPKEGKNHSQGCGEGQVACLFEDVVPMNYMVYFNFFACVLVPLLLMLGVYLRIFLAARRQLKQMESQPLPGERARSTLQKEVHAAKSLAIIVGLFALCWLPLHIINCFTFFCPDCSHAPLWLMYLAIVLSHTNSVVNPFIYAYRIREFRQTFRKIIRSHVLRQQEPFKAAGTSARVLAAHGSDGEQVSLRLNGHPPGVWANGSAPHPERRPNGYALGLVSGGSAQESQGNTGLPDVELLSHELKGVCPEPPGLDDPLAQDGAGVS

## COc1ccccc1CNc1nc(Cl)nc2c1ncn2[C@@H]1SC[C@@H](O)[C@H]1O [Example 7, (2R,3R,4S)-2-(2-chloro-6-(2-methoxybenzylamino)-9H-purin-9-yl)tetrahydrothiophen-3,4-diol]
A2A adenosine receptor
  % hA2A: 17.5%
[1]; [2]
  percentages of inflammation inhibition: 53%
A1 adenosine receptor
  % hA1: 9.4%
A3 adenosine receptor
  Ki: 19.9 ± 7.1 nM

## O[C@@H]1[C@H](O)CS[C@H]1n1cnc2c(NCc3cccc(F)c3)nc(Cl)nc21 [Example 1, (2R,3R,4S)-2-(2-chloro-6-(3-fluorobenzylamino)-9H-purin-9-yl)tetrahydrothiophen-3,4-diol]
A2A adenosine receptor
  % hA2A: 47.6%
[1]
  anti-inflammatory activity: increased
A1 adenosine receptor
  % hA1: 19.8%
A3 adenosine receptor
  Ki: 7.4 ± 1.3 nM

## O[C@@H]1[C@H](O)CS[C@H]1n1cnc2c(NCc3cccc(F)c3)ncnc21 [Example 11, (2R,3R,4S)-2-(6-(3-fluorobenzylamino)-9H-purin-9-yl)tetrahydrothiophen-3,4-diol]
A2A adenosine receptor
  Ki: 1260 ± 330 nM
A1 adenosine receptor
  Ki: 1430 ± 420 nM
A3 adenosine receptor
  Ki: 7.3 ± 0.6 nM

## O[C@@H]1[C@H](O)CO[C@H]1n1cnc2c(NCc3cccc(Br)c3)nc(Cl)nc21 [Example 15, (2R,3R,4R)-2-(6-(3-bromobenzylamino)-2-chloro-9H-purin-9-yl)tetrahydrofuran-3,4-diol]
A2A adenosine receptor
  % hA2A: 22.8%
[1]; [3]
  percentages of inflammation inhibition: 59%
A1 adenosine receptor
  % hA1: 39.8%
A3 adenosine receptor
  Ki: 13 ± 6.9 nM

## O[C@@H]1[C@H](O)CS[C@H]1n1cnc2c(NCc3cccc(Br)c3)nc(Cl)nc21 [Example 3, (2R,3R,4S)-2-(6-(3-bromobenzylamino)-2-chloro-9H-purin-9-yl)tetrahydrothiophen-3,4-diol]
A2A adenosine receptor
  % hA2A: 18.4%
A1 adenosine receptor
  % hA1: 34.2%
A3 adenosine receptor
  Ki: 8.99 ± 5.17 nM

## O=C(O)c1cccc(CNc2nc(Cl)nc3c2ncn3[C@@H]2SC[C@@H](O)[C@H]2O)c1 [Example 9, 3-((2-chloro-9-((2R,3R,4S)-3,4-dihydroxytetrahydrothiophen-2-yl)-9H-purine-6-ylamino)methyl)benzoic acid]
A2A adenosine receptor
  % hA2A: -0.18%
A1 adenosine receptor
  % hA1: 13.1%
A3 adenosine receptor; percentage inhibition of specific binding
  % hA3: 41.5%

## COc1ccc(Cl)cc1CNc1nc(Cl)nc2c1ncn2[C@@H]1SC[C@@H](O)[C@H]1O [Example 6, (2R,3R,4S)-2-(2-chloro-6-(5-chloro-2-methoxybenzylamino)-9H-purin-9-yl)tetrahydrothiophen-3,4-diol]
A2A adenosine receptor
  Ki: 4020 ± 1750 nM
[1]; [2]
  percentages of inflammation inhibition: 34%
[1]
  anti-inflammatory activity: increased
A1 adenosine receptor
  % hA1: 23.8%
A3 adenosine receptor
  Ki: 12.7 ± 3.7 nM

## O[C@@H]1[C@H](O)CS[C@H]1n1cnc2c(NCc3cccc(Br)c3)ncnc21 [Example 13, (2R,3R,4S)-2-(6-(3-bromobenzylamino)-9H-purin-9-yl)tetrahydrothiophen-3,4-diol]
A2A adenosine receptor
  Ki: 420 ± 32 nM
A1 adenosine receptor
  Ki: 790 ± 190 nM
A3 adenosine receptor
  Ki: 6.8 ± 3.4 nM

## O[C@@H]1[C@H](O)CS[C@H]1n1cnc2c(NCc3ccccc3Cl)nc(Cl)nc21 [Example 5, (2R,3R,4S)-2-(2-chloro-6-(2-chlorobenzylamino)-9H-purin-9-yl)tetrahydrothiophen-3,4-diol]
A2A adenosine receptor
  Ki: 1600 ± 135 nM
[1]; [2]
  percentages of inflammation inhibition: 17%
A1 adenosine receptor
  % hA1: 12.8%
A3 adenosine receptor
  Ki: 25.8 ± 6.3 nM

## CNc1nc(Cl)nc2c1ncn2[C@@H]1SC[C@H](O)[C@@H]1O [Example 10, 2-(2-chloro-6-methylamino-purin-9-yl)tetrahydrothiophen-3,4-diol]
A2A adenosine receptor
  % hA2A: 45.0 ± 1.4%
A1 adenosine receptor
  % hA1: 55.4 ± 1.8%
A3 adenosine receptor
  Ki: 3.69 ± 0.25 nM

## O[C@@H]1[C@H](O)CS[C@H]1n1cnc2c(NCc3cccc4ccccc34)nc(Cl)nc21 [Example 8, (2R,3R,4S)-2-(2-chloro-6-(naphthalen-1-ylmethylamino)-9H-purin-9-yl)tetrahydrothiophen-3,4-diol]
A2A adenosine receptor
  % hA2A: -8.3%
A1 adenosine receptor
  % hA1: 22.0%
A3 adenosine receptor
  Ki: 24.8 ± 8.1 nM

## O[C@@H]1[C@H](O)CO[C@H]1n1cnc2c(NCc3cccc(I)c3)nc(Cl)nc21 [Example 16, (2R,3R,4R)-2-(2-chloro-6-(3-iodobenzylamino)-9H-purin-9-yl)tetrahydrofuran-3,4-diol]
A2A adenosine receptor
  % hA2A: 28.6%
[1]; [3]
  percentages of inflammation inhibition: 79%
A1 adenosine receptor
  % hA1: 37.7%
A3 adenosine receptor
  Ki: 42.9 ± 8.9 nM

## O[C@@H]1[C@H](O)CS[C@H]1n1cnc2c(NCc3cccc(Cl)c3)ncnc21 [Example 12, (2R,3R,4S)-2-(6-(3-chlorobenzylamino)-9H-purin-9-yl)tetrahydrothiophen-3,4-diol]
A2A adenosine receptor
  Ki: 440 ± 110 nM
A1 adenosine receptor
  Ki: 860 ± 210 nM
A3 adenosine receptor
  Ki: 1.5 ± 0.4 nM
